This note sets out measurements from patent US12370155B2, “Anticancer composition” (NOAHM INC., priority 2018, dated 2025).

Structures can show the parent of a compound that is named as a salt.

Common to all, as to type: in vivo, BALB/c nude mice
The subject of assay [1] is 4T1 cells, breast cancer cells. In words: Tumor volume in 4T1 tumor-bearing mice. The following applies: day 18 of administration; intraperitoneal; MET 250, 2DG 500, IP6 500, Ins 500 mg/kg (four-combination: IP6 250 + Ins 250 mg/kg); control 1486.8±67.0; mean±SD. As to the method: (§1) Five-week-old, female specific pathogen free BALB/c nude mice were purchased and used from Orient Bio Co., Ltd. After quarantine and adaptation for one week, healthy animals without weight loss were selected and used in the test. The test animals were raised in a breeding environment set at a temperature of 23±3° C., a relative humidity of 50±10%, the ventilation number of 10 to 15 times/hour, lighting time of 12 hours (08:00 to 20:00), and illuminance of 150 to 300 Lux. During a pre-test period, the test animals were allowed to freely consume solid feed for the test animals (Cargill Agripurina Co., Ltd.) and drinking water.
(§2) After an adaptation period for one week, in BALB/c nude mice, 4T1 cells (1×10 ^5 cells/mouse), breast cancer cells, were injected to the left breast adipose tissues of the test animals, and then the tumor tissues were visually observed. When the tumor tissue size of the test animals was about 100 mm ^3, the test animals were divided into 9 test groups based on a randomized block design. That is, the 9 test groups were classified into a control group, a MET group (MET 250 mg/kg), a 2DG group (2DG 500 mg/kg), an Ins group (Ins 500 mg/kg), a IP6 group (IP6 500 mg/kg), a MET+2DG group (MET 250 mg/kg+2DG 500 mg/kg), a MET+2DG+Ins group (MET 250 mg/kg+2DG 500 mg/kg+Ins 500 mg/kg), a MET+2DG+IP6 group (MET 250 mg/kg+2DG 500 mg/kg+IP6 500 mg/kg), a MET+2DG+IP6+Ins group (MET 250 mg/kg+2DG 500 mg/kg+IP6 250 mg/kg+Ins 250 mg/kg), and each test group used 10 test animals. The test substance was dissolved in distilled water and intraperitoneally administered at fixed time for 18 days.
The body weight of the test animal during the test period was measured at a fixed time once a week from the test substance administration date. A tumor volume was measured by using a digital caliper every three days, the length and width of the tumor were measured, and the tumor volume was calculated by substituting the following Equation. Tumor volume (mm^3)=(width^2×length)/2

Assay [2] relates to 4T1 cells, breast cancer cells. Kind of assay: Tumor weight in 4T1 tumor-bearing mice. Particulars: day 19 of administration; intraperitoneal; MET 250, 2DG 500, IP6 500, Ins 500 mg/kg (four-combination: IP6 250 + Ins 250 mg/kg); control 1.244±0.22; mean±SD. As to the method:
as §1, §2
[…] The blood was placed in a serum separate tube (Becton Dickinson) and left at room temperature for 30 minutes and centrifuged at 3,000 rpm for 20 minutes to isolate serum and the isolated serum was stored at −70° C. until analysis. […] Tumors were weighed and some were fixed in 10% neutral buffered formalin (NBF, Sigma-Aldrich Co.) and embedded in paraffin to perform tissue immunostaining. The lung was fixed with a Bouin's solution (Sigma-Aldrich Co.), and the tumor nodule metastasized to the lung was observed and a lung metastasis rate was examined.

Assay [3] deals with 4T1 cells, breast cancer cells. Kind of assay: Incidence of lung metastasis in 4T1 tumor animal model. Particulars: 10 animals per group; intraperitoneal; control 100%. The procedure: as §1, §2
After 14 days of administration of the test substance, the test animals were anesthetized using an anesthetic made by diluting tribromoethanol with tert-amyl alcohol and the blood was collected from the orbit. The blood was placed in a serum separate tube (Becton Dickinson) and left at room temperature for 30 minutes and centrifuged at 3,000 rpm for 20 minutes to isolate serum and the isolated serum was stored at −70° C. until analysis. After taking the blood from the test animals, the tumor was extracted and weighed. Tumors were weighed and some were fixed in 10% neutral buffered formalin (NBF, Sigma-Aldrich Co.) and embedded in paraffin to perform tissue immunostaining. The lung was fixed with a Bouin's solution (Sigma-Aldrich Co.), and the tumor nodule metastasized to the lung was observed and a lung metastasis rate was examined.

Regarding `OCC1O[C@H](O)C[C@@H](O)[C@@H]1O` (mixture of isomers) [2DG, 2-deoxy-D-glucose], the tumor volume in assay [1] came out at 1350.3±55.2 mm^3. The tumor weight in assay [2] amounted to 1.092 ± 0.18 g. For the same compound, the “incidence of lung metastasis” value in assay [3] was 100%.

In the case of `O=P(O)(O)O[C@H]1[C@H](OP(=O)(O)O)[C@@H](OP(=O)(O)O)[C@H](OP(=O)(O)O)[C@@H](OP(=O)(O)O)[C@H]1OP(=O)(O)O` [IP6, inositol hexaphosphate], the tumor volume in assay [1] is 1108.5±66.3 mm^3. Besides, the tumor weight in assay [2] came to 0.874 ± 0.18 g. The “incidence of lung metastasis” value in assay [3] was 90%.

For `O[C@H]1[C@H](O)[C@@H](O)[C@H](O)[C@@H](O)[C@H]1O` [Ins, myo-inositol], the tumor volume in assay [1] came out at 1190.1±67.3 mm^3. Besides, the tumor weight in assay [2] was 0.904 ± 0.20 g. For the same compound, the “incidence of lung metastasis” value in assay [3] turned out to be 90%.

As to `CN(C)C(=N)NC(=N)N` [MET, Metformin HCl], the tumor volume in assay [1] was found to be 1400.5±58.6 mm^3. Further, the tumor weight in assay [2] was determined as 1.134 ± 0.15 g. Further, in assay [3], the “incidence of lung metastasis” value turned out to be 100%.
